# Measurements taken from the supplement of paper PMC13380429.
# Columns and labels:
# Settings in all cases: 72 h
# [1] = test system: U2OS; assay: cell viability relative to DMSO; higher = less toxic
# [2] = test system: HepG2; assay: as above
# [3] = test system: Calu-3; assay: as above
# [4] = test system: Vero E6; assay: as above
# [5] = test system: Caco-2; assay: as above
# [6] = test system: U2OS; assay: relative viability EC50 (midpoint between 100% and the lowest measured viability); higher = less toxic
# [7] = test system: HepG2; assay: as above
# [8] = test system: Calu-3; assay: as above
# [9] = test system: Vero E6; assay: as above
# [10] = test system: Caco-2; assay: as above
# [11] = test system: U2OS; assay: drug sensitivity score (DSS) for viability; higher = more toxic; extreme values may be limits of the assay
# [12] = test system: HepG2; assay: as above
# [13] = test system: Calu-3; assay: as above
# [14] = test system: Vero E6; assay: as above
# [15] = test system: Caco-2; assay: as above
Structure (SMILES),cell viability ([1]; 1 nM) [%],cell viability ([1]; 10 nM) [%],cell viability ([1]; 100 nM) [%],cell viability ([1]; 1000 nM) [%],cell viability ([1]; 10000 nM) [%],cell viability ([2]; 1 nM) [%],cell viability ([2]; 10 nM) [%],cell viability ([2]; 100 nM) [%],cell viability ([2]; 1000 nM) [%],cell viability ([2]; 10000 nM) [%],cell viability ([3]; 1 nM) [%],cell viability ([3]; 10 nM) [%],cell viability ([3]; 100 nM) [%],cell viability ([3]; 1000 nM) [%],cell viability ([3]; 10000 nM) [%],cell viability ([4]; 1 nM) [%],cell viability ([4]; 10 nM) [%],cell viability ([4]; 100 nM) [%],cell viability ([4]; 1000 nM) [%],cell viability ([4]; 10000 nM) [%],cell viability ([5]; 1 nM) [%],cell viability ([5]; 10 nM) [%],cell viability ([5]; 100 nM) [%],cell viability ([5]; 1000 nM) [%],cell viability ([5]; 10000 nM) [%],relative viability EC50 [6] [µM],relative viability EC50 [7] [µM],relative viability EC50 [8] [µM],relative viability EC50 [9] [µM],relative viability EC50 [10] [µM],drug sensitivity score [11],drug sensitivity score [12],drug sensitivity score [13],drug sensitivity score [14],drug sensitivity score [15]
CN1c2c([nH]c(N)nc2=O)NC[C@@H]1CNc1ccc(C(=O)N[C@@H](CCC(=O)O)C(=O)O)cc1 [metafolin],94.9,100,92.5,105,101,102,89.8,105,110,108,91.1,106,105,96.5,96.9,96.1,91.6,96.3,83.2,104,95.4,90.3,85.3,98.1,102,> 10,> 10,> 10,> 10,> 10,0,0,0,0,0
CC[C@@H](CO)NC(=O)[C@@H]1C=C2c3cccc4c3c(cn4C)C[C@H]2N(C)C1 [methysergide],101,96.1,100,92.3,98.7,94.8,96.9,102,102,111,88.7,99.1,102,97,102,96,100,91.9,99.7,111,95.9,89.6,100,94.3,110,> 10,> 10,> 10,> 10,> 10,0,0,0,0,0
COCCc1ccc(OCC(O)CNC(C)C)cc1 (stereo not given) [metoprolol],103,109,99,108,104,112,79.4,122,79.7,93.6,93.1,106,93.2,101,98.7,97.7,97.1,96.1,93.6,96.2,102,136,91.8,110,94.4,> 10,> 10,> 10,> 10,> 10,0,0,0,0,0
O=c1c(O)c(-c2cc(O)c(O)c(O)c2)oc2cc(O)cc(O)c12 [myricetin],93.6,105,97.4,99.6,103,96.9,91.9,106,94.4,96.3,105,98.5,96,102,105,94.1,97.7,95.4,95.8,97.5,97.2,99.2,98.8,101,96,> 10,> 10,> 10,> 10,> 10,0,0,0,0,0
CCOc1ccc2ccccc2c1C(=O)N[C@@H]1C(=O)N2[C@@H]1SC(C)(C)[C@@H]2C(=O)O [nafcillin],98.2,99.6,94.5,100,106,99.5,91.5,96.8,92.4,99.5,91.1,107,101,99.5,102,103,90.3,94.2,104,95.7,99,96.4,99.9,101,105,> 10,> 10,> 10,> 10,> 10,0,0,0,0,0
Oc1ccc2c3c1O[C@H]1c4oc5ccccc5c4C[C@@]4(O)[C@@H](C2)N(CC2CC2)CC[C@]314 [naltriben],101,101,100,101,99.8,102,120,93.5,99.7,99,105,85.1,105,87.7,99.5,90.9,101,93.3,96.4,108,91.7,91.9,102,98.6,86.5,> 10,> 10,> 10,> 10,> 10,0,0,0,0,0.3
